# Source: patent US20260257987A1, “COMPOUNDS AND METHOD FOR UPREGULATION OF P53 THROUGH INDUCTION OF MDM2 DEGRADATION” (Georgia State University Research Foundation, Inc., priority 2022, published 2026)
# Entries after “also recorded” stand apart in the source; their conditions may differ. Read-outs that look alike come from different tables or passages of the source.
# Columns and labels:
# EU-1 ALL cells = conditions: background; cited from earlier work
# EU-1 cells = test: Cytotoxicity test (CCK-8 cell viability) in EU-1 cells; assay type: cell-based; conditions: for IC50: read-out: IC50 (μM) in EU-1 cells; for fold more potent than BW-AQ-238: compared to BW-AQ-238
# Description: (§1) Cell viability was assessed by using Cell Counting Kit-8 (CCK-8, Dojindo, Japan). EU-1 and RS4;11 cells were cultured in RPMI-1640 medium (Corning, USA); MCF7 and HEK-293 cells were cultured in MEM (Corning, USA); and HeLa and H9c2 cells were cultured in high glucose DMEM (Corning, USA). All the culture mediums were supplemented with 10% fetal bovine serum (Corning, USA) and 100 unit/ml penicillin, and […] streptomycin. For cytotoxicity assays, cells were seeded into 96-well plates at a density of 3× 10^5 cells per well (50 μL). Compounds were dissolved in DMSO (molecular biology grade, Sigma-Aldrich, USA) to make 10 mM stock solutions, which were serially diluted with the culture medium to various concentrations (final DMSO concentration=0.5%). A culture medium (50 μL) containing the anthraquinone analog was added directly to the cell suspension in each well immediately after seeding. After incubation for 24 h at 37° C. in a humidified atmosphere with 5% CO2, 10 μL of CCK-8 solution was added to each well, and the plate was incubated for an additional 2-4 h at 37° C. before measuring the optical density at 450 nm with a microplate reader (PerkinElmer Victor 2, USA). The cell viability of each well was calculated as the percentage of the untreated control according to the manufacturer's manual. All tests were performed in triplicates, and IC50 values were determined with six concentrations by non-linear regression using GraphPad Prism 9.
# HEK-293 cells = test: Cytotoxicity test (CCK-8) in HEK-293 cells; assay type: cell-based; conditions: Homo sapiens, HEK293
# Description: as §1, with “A culture medium (50 μL) containing the anthraquinone analog was added directly to the cell suspension in each well immediately after seeding.” left out
# [1] = Thiol (NAC) reactivity study by HPLC; assay type: physicochemical; conditions: for order of reactivity with NAC (pseudo-first-order kinetics): 0.3 mM analog, 1.5 mM NAC
# Description: HPLC was performed on Shimadzu LC-20AT HPLC system. Condition: mobile phase A: water with 0.05% TFA; B: acetonitrile with 0.05% TFA; gradient: 5-95% B, 0-10 min; […]; 5% B 12.1-15 min. Column: C18, 3.5 μm, 4.6×150 mm; UV detector monitored at 254 nm. For the thiol reactivity assay, a 0.3 mM solution of AQ-analogs was prepared in 0.5 mL PBS: MeOH (80:20) and warmed at 37° C. Next, 25 μL of NAC (from 30 mM stock solution in PBS) was added to the above solution. The resultant solution had final concentrations of 0.3 mM AQ-analogs and 1.5 mM NAC. 20 μL of the reaction mixture was injected into the HPLC at the designated time intervals. The area percentage values were determined via the integration of the area under the curve (AUC) of the chromatogram.
# RS4;11 cells = test: Cytotoxicity test (CCK-8) in RS4;11 cells; assay type: cell-based; conditions: Homo sapiens
# Description: as §1, with “A culture medium (50 μL) containing the anthraquinone analog was added directly to the cell suspension in each well immediately after seeding.” left out
# HeLa cells = test: Cytotoxicity test (CCK-8) in HeLa cells; assay type: cell-based; conditions: for IC50: Homo sapiens, HeLa cells
# Description: as §1
# [2] = tested on: MDM2 and p53 in EU-1 leukemia cells; test: Western blot of MDM2 and p53 in EU-1 leukemia cells; assay type: cell-based; conditions: EU-1 cells; for MDM2 and p53 level by Western blot, dose and time dependence: GAPDH loading control
# Description: Western Blot 5×10^6 cells were seeded in a 6-well plate and incubated for 12 h before the drug-loaded medium was added. The cells were harvested at designated time points, washed with cold PBS, and centrifuged at 1500 rpm×3 min. Then the cells were lysed by adding 100 μL of cold NP-40 buffer (supplied with complete™ protease Inhibitor tablet (Roche, USA)) and 1 mM PMSF (Thermo-Fisher, USA) on ice for 30 min. The cell lysates were centrifuged at 12500×g at 4° C. for 10 min, and the total protein concentration in the supernatant was measured with the BCA assay (Thermo-Fisher, USA). 30 μL of the cell lysate was mixed with 10 μL 4×Laemmli sample buffer and denatured at 95° C. for 5 min. The total protein concentration was adjusted with 1×Laemmli sample buffer. Equal amounts of protein sample were loaded onto a 4-15% gradient SDS-PAGE gel (Bio-rad, USA). After electrophoresis, the protein was transferred to the […] membrane (Bio-rad, USA) with the Trans-Blot Turbo system (Bio-rad, USA). The target protein was probed with the corresponding antibody using iBind Western Systems (Thermo-Fisher, USA), according to the manufacturer's manual. Antibody and dilution profile: MDM2 ((SMP14), 1:500 Santa Cruz, USA); p53 ((DO-1), 1:800, Santa Cruz, USA); GAPDH ((0411), 1:2000, Santa Cruz, USA) and HRP conjugated goat anti-mouse secondary antibody (1:2000, Bio-rad, USA). After incubation with Pierce ECL Plus Substrate (Thermo Scientific), chemiluminescent was detected and imaged with LSA^4000 (GE Healthcare, Fairfield, USA).
# MCF7 cells = test: Cytotoxicity test (CCK-8) in MCF7 cells; assay type: cell-based; conditions: Homo sapiens
# Description: as §1, with “A culture medium (50 μL) containing the anthraquinone analog was added directly to the cell suspension in each well immediately after seeding.” left out
# H9c2 cells = test: Cytotoxicity test (CCK-8) in H9c2 cells; assay type: cell-based; conditions: Rattus norvegicus
# Description: as §1, with “A culture medium (50 μL) containing the anthraquinone analog was added directly to the cell suspension in each well immediately after seeding.” left out
# [3] = tested on: RS4;11 cells (wild-type p53); test: Cytotoxicity test of BW-AQ-365 (CCK-8) in RS4;11 cells; assay type: cell-based; conditions: Homo sapiens; RS4; 11, 25000 cells/well, 48 h, positive control
# Description: Cell viability was assessed by using Cell Counting Kit-8 (CCK-8, Dojindo, Japan). RS4;11 cells (wild-type p53) were cultured in RPMI-1640 medium (Corning, USA). The culture mediums were supplemented with 10% fetal bovine serum (Corning, USA) and 100 unit/ml penicillin, and […] streptomycin. […] Compounds were dissolved in DMSO (molecular biology grade, Sigma-Aldrich, USA) to make 10 mM stock solutions, which were serially diluted with the culture medium to various concentrations (final DMSO concentration=0.5%). A culture medium (50 μL) containing BW-AQ-365 was added directly to the cell suspension in each well immediately after seeding. After incubation for 24-72 h at 37° C. in a humidified atmosphere with 5% CO2, 10 μL of CCK-8 solution was added to each well, and the plate was incubated for an additional 2-4 h at 37° C. before measuring the optical density at 450 nm with a microplate reader (PerkinElmer Victor 2, USA). The cell viability of each well was calculated as the percentage of the untreated control according to the manufacturer's manual. All tests were performed in triplicates, and IC50 values were determined by non-linear regression using GraphPad Prism 9.0.
# [4] = EU-1 cells, 24 h incubation, CCK-8
# [5] = EU-1 cells, compared to BW-AQ-295
compound,measurement,setting,value
"O=C(CCl)Nc1cc(O)c2c(c1)C(=O)c1cccc(O)c1C2=O [BW-AQ-101, 2-chloro-N-(4,5-dihydroxy-9,10-dioxo-9,10-dihydroanthracen-2-yl)acetamide]",IC50,EU-1 ALL cells,~800 nM
"O=C(CCl)Nc1cc(OCCO)c2c(c1)C(=O)c1cccc(OCCO)c1C2=O [BW-AQ-238, reference compound]",IC50,EU-1 cells; [4],0.74 ± 0.12 µM
"CC(=O)CCOc1cccc2c1C(=O)c1c(OCCC(C)=O)cc(NC(=O)CCl)cc1C2=O [BW-AQ-260, 2-chloro-N-(9,10-dioxo-4,5-bis(3-oxobutoxy)-9,10-dihydroanthracen-2-yl)acetamide]",IC50,EU-1 cells; [4],0.45 µM
same,fold more potent than BW-AQ-238,EU-1 cells; EU-1 cells,about 3 fold
"CC(=O)CCCOc1cccc2c1C(=O)c1c(OCCCC(C)=O)cc(NC(=O)CCl)cc1C2=O [BW-AQ-295, 2-chloro-N-(9,10-dioxo-4,5-bis ((4-oxopentyl)oxy)-9,10-dihydroanthracen-2-yl)acetamide]",IC50,HEK-293 cells,1160 ± 340 nM
same,"reactivity towards thiol, in words",[1],reacts with thiol species
same,order of reactivity with NAC (pseudo-first-order kinetics),"[1]; 37° C. in PBS, HPLC",BW-AQ-350 >BW-AQ-353 >BW-AQ-295 ~ BW-AQ-354 >>BW-AQ-349
same,IC50,RS4;11 cells,690 ± 100 nM
same,fold less potency in HeLa cells compared to MCF7 cells,HeLa cells; HeLa vs MCF7,over 2 fold
same,IC50,HeLa cells,2310 ± 80 nM
same,"MDM2 and p53 level by Western blot, time course",[2]; 0.8 μM,decreased MDM2 and increased p53 level were observed from the 4-h time point
same,MDM2 level by Western blot,"[2]; 2 μM, 6 h",decreased MDM2 to an almost undetectable level
same,"MDM2 and p53 level by Western blot, dose and time dependence",[2],decrease MDM2 level and increase p53 level in a dose- and time-dependent manner; also recorded: downregulate MDM2 and upregulate p53 in EU-1 cells in a time- and dose-dependent fashion; also recorded: downregulation of MDM2 and upregulation p53
same,IC50,MCF7 cells,950 ± 170 nM
same,IC50,EU-1 cells; [4],0.43 ± 0.06 µM
same,fold more potent than BW-AQ-238,EU-1 cells; EU-1 cells,about 3 fold
same,IC50,H9c2 cells,1120 ± 200 nM
"CC(=O)CCCOc1cc(NC(=O)CCl)cc2c1C(=O)c1c(O)cccc1C2=O [BW-AQ-336, 2-chloro-N-(5-hydroxy-9,10-dioxo-4-((4-oxopentyl)oxy)-9,10-dihydroanthracen-2-yl)acetamide]",IC50,EU-1 cells; [4],0.84 ± 0.02 µM
same,fold decrease in potency / less potent compared to BW-AQ-295,EU-1 cells; [5],about 2 fold
"CC(=O)CCCCOc1cccc2c1C(=O)c1c(OCCCCC(C)=O)cc(NC(=O)CCl)cc1C2=O [BW-AQ-345, 2-chloro-N-(9,10-dioxo-4,5-bis ((5-oxohexyl)oxy)-9,10-dihydroanthracen-2-yl)acetamide]",IC50,"EU-1 cells; EU-1, 24 h",0.79 ± 0.03 µM
"CC(=O)CCCOc1cccc2c1C(=O)c1c(OCCCC(C)=O)cc(NC(C)=O)cc1C2=O [BW-AQ-349, N-(9,10-dioxo-4,5-bis ((4-oxopentyl)oxy)-9,10-dihydroanthracen-2-yl)acetamide]",stability in presence of NAC,"[1]; 37° C. in PBS, HPLC",remained unchanged during the study duration (>400 min)
same,order of reactivity with NAC (pseudo-first-order kinetics),"[1]; 37° C. in PBS, HPLC",BW-AQ-350 >BW-AQ-353 >BW-AQ-295 ~ BW-AQ-354 >>BW-AQ-349
same,IC50,"EU-1 cells; EU-1, 24 h",> 100 µM
same,"cytotoxicity in EU-1 cells, in words",EU-1 cells; EU-1 cells,lack of activity
"C#CC(=O)Nc1cc(OCCCC(C)=O)c2c(c1)C(=O)c1cccc(OCCCC(C)=O)c1C2=O [BW-AQ-350, N-(9,10-dioxo-4,5-bis ((4-oxopentyl)oxy)-9,10-dihydroanthracen-2-yl) propiolamide]",IC50,HEK-293 cells,2350 ± 690 nM
same,"reactivity towards thiol, in words",[1],high reactivity towards nucleophile such as thiol and amino acid
same,order of reactivity with NAC (pseudo-first-order kinetics),"[1]; 37° C. in PBS, HPLC",BW-AQ-350 >BW-AQ-353 >BW-AQ-295 ~ BW-AQ-354 >>BW-AQ-349
same,IC50,RS4;11 cells,520 ± 70 nM
same,IC50,HeLa cells,4670 ± 250 nM
same,"MDM2 and p53 level by Western blot, dose and time dependence",[2],induced decrease in MDM2 levels in a dose- and time-dependent fashion; also recorded: downregulate MDM2 and upregulate p53 in EU-1 cells in a time- and dose-dependent fashion; also recorded: downregulation of MDM2 and upregulation p53
same,IC50,MCF7 cells,4930 ± 450 nM
same,IC50,EU-1 cells; [4],0.19 µM
same,fold increase in potency compared to BW-AQ-295,EU-1 cells; [5],2 fold
same,IC50,H9c2 cells,~300 nM
"C=CC(=O)Nc1cc(OCCCC(C)=O)c2c(c1)C(=O)c1cccc(OCCCC(C)=O)c1C2=O [BW-AQ-353, N-(9,10-dioxo-4,5-bis ((4-oxopentyl)oxy)-9,10-dihydroanthracen-2-yl) acrylamide]",order of reactivity with NAC (pseudo-first-order kinetics),"[1]; 37° C. in PBS, HPLC",BW-AQ-350 >BW-AQ-353 >BW-AQ-295 ~ BW-AQ-354 >>BW-AQ-349
same,IC50,EU-1 cells; [4],6.21 ± 0.45 µM
same,fold decrease in potency / less potent compared to BW-AQ-295,EU-1 cells; [5],about 15 fold
"C=CS(=O)(=O)Nc1cc(OCCCC(C)=O)c2c(c1)C(=O)c1cccc(OCCCC(C)=O)c1C2=O [BW-AQ-354, N-(9,10-dioxo-4,5-bis ((4-oxopentyl)oxy)-9,10-dihydroanthracen-2-yl) ethenesulfonamide]",order of reactivity with NAC (pseudo-first-order kinetics),"[1]; 37° C. in PBS, HPLC",BW-AQ-350 >BW-AQ-353 >BW-AQ-295 ~ BW-AQ-354 >>BW-AQ-349
same,"cytotoxicity in EU-1 cells, in words",EU-1 cells; EU-1 cells,more potent than BW-AQ-353
same,IC50,EU-1 cells; [4],3.45 ± 0.45 µM
"COc1cccc2c1C(=O)c1c(O)c3c(c(O)c1C2=O)C[C@@](O)(C(=O)CO)C[C@@H]3O[C@H]1C[C@H](N)[C@H](O)[C@H](C)O1 [Doxorubicin, reference compound]",IC50,[3],53.1 ± 6.1 nM
same,IC50,EU-1 cells; [4],0.15 ± 0.02 µM
"C#CC(N)=O [Propiolamide, reference compound]",IC50,EU-1 cells; [4],33.5 ± 7.8 µM
